Measured values as given in patent US20240294548A1, “TRICYCLIC SULTAMS AND SULFAMIDES AS ANTITUMOR AGENTS” (PELOTON THERAPEUTICS INC., priority 2021, published 2024).
Like-named read-outs stand apart in the source and are kept apart here.

Tests used:
[1] = tested on: HCT116 human colorectal carcinoma cells; assay: CellTiter-Glo assay (cell viability); assay type: cell-based; conditions: HCT-116, 72 h, read-out: CTG IC50
How it was run: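 Cells (3,000/well) in DMEM/10% FBS were treated next day with 3-fold serial dilutions (final top […]) in triplicate for 3 days. Viability read by CellTiter-Glo luminescence; IC50 derived from dose-response.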

[2] = target: T1, DCAF15 (DDA1-DDB1ΔB-DCAF15Δpro) (Homo sapiens, UniProt Q66K64, DEL276-383); assay: DCAF15 displacement assay (displacement FRET, probe PT7795); assay type: binding
T1 construct: made in house; host or cells: Sf9 (Bac-to-Bac baculovirus)

[3] = target: T2, DCAF15 RBM39 ternary complex (Homo sapiens, UniProt Q14498+Q66K64, DEL276-383); assay: DCAF15 RBM39 complex formation assay (FRET); assay type: biochemical
T2 construct: Amino acids 150 to 331 of RBM39 were cloned into pGEX4T3; GST (from the pGEX4T3 vector, own knowledge) followed by a TEV cleavage site (N); made in house; host or cells: Sf9 baculovirus (DDB1ΔB/DCAF15); E. coli (RBM39 R1R2)
How it was run: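 TR-FRET between Eu-anti-His and APC-anti-FLAG, using 20 nM His-DCAF15/DDB1DB (Sf9) with 50 nM RBM39 RRM1–RRM2 (E. coli) in HEPES pH 7.5 buffer. Compounds run as a 14-point 3-fold series from 1 μM, incubated overnight at 4 °C.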

[4] = HCT116 cells, 3 days, CellTiter-Glo luminescence
[5] = displacement of PT7795 (300 nM), compound 0.01 to 100 μM, 18 hours incubation, read-out: DCAF15 displacement IC50
[6] = FRET ratio, 20 nM DDB1DB/DCAF15, 50 nM RBM39 R1R2, overnight at 4° C., read-out: DCAF15 RBM39 ternary complex EC50

T2 sequence (Q66K64 with tags, fused parts or gaps DEL276-383): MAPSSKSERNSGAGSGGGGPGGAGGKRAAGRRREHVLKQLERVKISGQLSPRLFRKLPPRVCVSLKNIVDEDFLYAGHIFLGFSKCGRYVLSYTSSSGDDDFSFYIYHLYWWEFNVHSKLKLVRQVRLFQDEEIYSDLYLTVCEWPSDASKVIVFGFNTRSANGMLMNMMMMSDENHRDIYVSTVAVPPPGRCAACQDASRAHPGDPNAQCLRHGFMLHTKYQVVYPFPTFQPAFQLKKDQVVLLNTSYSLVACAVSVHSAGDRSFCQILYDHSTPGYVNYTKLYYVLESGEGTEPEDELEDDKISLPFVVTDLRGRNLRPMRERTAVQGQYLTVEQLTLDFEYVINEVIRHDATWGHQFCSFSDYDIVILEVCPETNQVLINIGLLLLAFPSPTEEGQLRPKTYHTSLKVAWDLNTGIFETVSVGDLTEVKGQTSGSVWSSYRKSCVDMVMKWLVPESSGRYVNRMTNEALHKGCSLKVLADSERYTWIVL
T2 sequence (Q14498 150-331, stated change not applied): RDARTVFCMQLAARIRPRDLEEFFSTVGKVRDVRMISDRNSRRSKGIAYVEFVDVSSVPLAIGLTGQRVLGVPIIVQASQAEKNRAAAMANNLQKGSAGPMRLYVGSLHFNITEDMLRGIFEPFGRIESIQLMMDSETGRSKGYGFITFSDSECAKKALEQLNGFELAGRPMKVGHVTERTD

| IC50 [1, 4] | IC50 [2, 5] | EC50 [3, 6] | SMILES | IC50 [1] | IC50 [2] | EC50 [3] |
| --- | --- | --- | --- | --- | --- | --- |
| 150 nM | 223 nM | 1.2 nM | CS(=O)(=O)N1CCC(CN2Cc3cc(Cl)c4c(Cl)c[nH]c4c3NS2(=O)=O)CC1 [Compound 72, 6,7-dichloro-3-((1-(methylsulfonyl)piperidin-4-yl)methyl)-1,3,4,9-tetrahydro-[1,2,6]thiadiazino[4,3-g]indole 2,2-dioxide] |  |  |  |
| 850 nM | 4320 nM | 2.3 nM | O=S1(=O)Nc2c(cc(Cl)c3c(Cl)c[nH]c23)CN1Cc1cccc(F)c1 [Compound 75, 6,7-dichloro-3-(3-fluorobenzyl)-1,3,4,9-tetrahydro-[1,2,6] thiadiazino[4,3-g]indole 2,2-dioxide] |  |  |  |
| 254 nM | 569 nM | 1.2 nM | Nc1cccc(CN2Cc3cc(Cl)c4c(Cl)c[nH]c4c3NS2(=O)=O)c1 [Compound 76, 3-(3-aminobenzyl)-6,7-dichloro-1,3,4,9-tetrahydro-[1,2,6] thiadiazino[4,3-g]indole 2,2-dioxide] |  |  |  |
| 66.9 nM | 781 nM | 2.3 nM | CN1CCC(CN2Cc3cc(Cl)c4c(Cl)c[nH]c4c3NS2(=O)=O)CC1 [Compound 83, 6,7-dichloro-3-((1-methylpiperidin-4-yl)methyl)-1,3,4,9-tetrahydro-[1,2,6]thiadiazino[4,3-g]indole 2,2-dioxide] |  |  |  |
| 1790 nM | 33100 nM | 4.3 nM | O=S1(=O)Nc2c(cc(Cl)c3c(Cl)c[nH]c23)CN1CCc1ccccc1 [Compound 84, 6,7-dichloro-3-phenethyl-1,3,4,9-tetrahydro-[1,2,6] thiadiazino[4,3-g]indole 2,2-dioxide] |  |  |  |
| 302 nM | 8380 nM | 2 nM | O=S1(=O)Nc2c(cc(Cl)c3c(Cl)c[nH]c23)CN1CC1CC(F)(F)C1 [Compound 85, 6,7-dichloro-3-((3,3-difluorocyclobutyl)methyl)-1,3,4,9-tetrahydro-[1,2,6] thiadiazino[4,3-g]indole 2,2-dioxide] |  |  |  |
| 121 nM | 410 nM | 1.3 nM | O=S1(=O)Nc2c(cc(Cl)c3c(Cl)c[nH]c23)CN1CC1CCOC1 (stereo not drawn) [Compound 86, 6,7-dichloro-3-((tetrahydrofuran-3-yl)methyl)-1,3,4,9-tetrahydro-[1,2,6] thiadiazino[4,3-g]indole 2,2-dioxide] |  |  |  |

More lines, now with the values behind:

| SMILES | IC50 [1, 4] | IC50 [2, 5] | EC50 [3, 6] | IC50 [1] | IC50 [2] | EC50 [3] |
| --- | --- | --- | --- | --- | --- | --- |
| O=S1(=O)Nc2c(cc(Cl)c3c(Cl)c[nH]c23)CN1Cc1ccccc1F [Compound 70, 6,7-dichloro-3-(2-fluorobenzyl)-1,3,4,9-tetrahydro-[1,2,6] thiadiazino[4,3-g]indole 2,2-dioxide] | 833 nM | 1950 nM | 3.3 nM |  |  |  |
| O=S1(=O)Nc2c(cc(Cl)c3c(Cl)c[nH]c23)CN1CCN1CCOCC1 [Compound 71, 6,7-dichloro-3-(2-morpholinoethyl)-1,3,4,9-tetrahydro-[1,2,6] thiadiazino[4,3-g]indole 2,2-dioxide] |  |  |  | 353 nM | 952 nM | 2.1 nM |
| O=S1(=O)Nc2c(cc(Cl)c3c(Cl)c[nH]c23)CN1Cc1cccc(O)c1 [Compound 73, 6,7-dichloro-3-(3-hydroxybenzyl)-1,3,4,9-tetrahydro-[1,2,6] thiadiazino[4,3-g]indole 2,2-dioxide] | 418 nM | 1650 nM | 1.3 nM |  |  |  |
| Nc1ccccc1CN1Cc2cc(Cl)c3c(Cl)c[nH]c3c2NS1(=O)=O [Compound 74, 3-(2-aminobenzyl)-6,7-dichloro-1,3,4,9-tetrahydro-[1,2,6] thiadiazino[4,3-g]indole 2,2-dioxide] | 171 nM | 301 nM | 1.3 nM |  |  |  |
| COCCN1Cc2cc(C)c3c(Cl)c[nH]c3c2NS1(=O)=O [Compound 87, 7-chloro-3-(2-methoxyethyl)-6-methyl-1,3,4,9-tetrahydro-[1,2,6] thiadiazino[4,3-g]indole 2,2-dioxide] | 258 nM | 6220 nM | 1.8 nM |  |  |  |
